The source of these data is EP2130831A1, “CDC25 inhibitors” (InterMed Discovery GmbH, priority 2008, dated 2009).

Like-named read-outs stand apart in the source and are kept apart here. A value given as a limit tells only on which side of the number the result lay.

One assay concerns DU145. Kind of assay: Cell proliferation Assay (Alamar Blue), DU145. Format: cell-based. To be noted: Homo sapiens, DU-145, 72 hrs. The method, then:
(§1) Used cell lines: HCT116; DU145; A549, H460 In a 96-well plate, 3000 cells/well were plated in 100 µl DMEM containing 10% FBS, 10 mM HEPES and 1% Penicllin/Streptomycin. To each well 50 µl of additional growth media containing the compound with 0.1% DMSO was added. Cells were grown for 72 hrs. at 37°C. 20 µl of Alamar Blue reagent was added and incubated for 3-5 hours until color develops. Plates were read in a SpectraMax Gemini (Molecular Devices, CA) with 544 nm excitation and 590 nm emission wavelength.
Background: Resazurin is reduced to fluorescent resorufin, in cell work by metabolically active cells.

The next assay relates to H460. The assay is described as follows: Cell proliferation Assay (Alamar Blue), H460. The assay is classed as cell-based. To be noted: Homo sapiens, NCI-H460, 72 hrs. The method, then:
as §1

For the next assay, the target named is T1, CDC25C (Homo sapiens, UniProt P30307).
T1 sequence (P30307 1-473): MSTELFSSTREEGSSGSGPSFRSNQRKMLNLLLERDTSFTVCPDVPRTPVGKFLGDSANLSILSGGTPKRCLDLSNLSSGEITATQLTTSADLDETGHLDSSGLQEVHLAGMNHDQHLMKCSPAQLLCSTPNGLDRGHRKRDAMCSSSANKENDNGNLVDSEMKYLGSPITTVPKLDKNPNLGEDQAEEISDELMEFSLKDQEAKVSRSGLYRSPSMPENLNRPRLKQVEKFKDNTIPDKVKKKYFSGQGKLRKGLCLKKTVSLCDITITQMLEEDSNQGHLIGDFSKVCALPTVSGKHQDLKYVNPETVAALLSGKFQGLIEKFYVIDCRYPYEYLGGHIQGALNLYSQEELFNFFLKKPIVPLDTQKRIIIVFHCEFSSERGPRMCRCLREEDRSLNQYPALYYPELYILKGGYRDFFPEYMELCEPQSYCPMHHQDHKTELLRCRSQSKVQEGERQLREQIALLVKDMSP
Kind of assay: CDC25C Enzyme Assay (hydrolysis of fluorogenic substrate OMFP). Format: biochemical. Here is the method:
The assay principle was hydrolysis of an artificial fluorogenic substrate of CDC25C, 3-0-methyl-fluorescein monophosphate (OMFP). […] The assay was performed in 96 well microtiter plates (Greiner 96 well black FIA plates) at ambient temperature.
The additions to the wells were as follows: 1 Addition of 4 µl of a DMSO solution of the test compound; controls received 4 µl of DMSO instead 2 Addition of 76 µl assay buffer (assay buffer: 100 mM Tris pH 8.2, 40 mM NaCl. 5 mM DTT, 20% glycerol) 3 Addition of 10 µl CDC25 C (CDC25 C in assay buffer; protein final concentration 1.1 µg/mL) 4 Start of reaction by addition of 10 µl OMFP (substrate in assay buffer; final concentration of OMFP in assay: 90 µM )
Ortho-vanadate was used as a reference inhibitor. Background controls contained buffer, substrate and DMSO, but no enzyme. The microtiter plates were analyzed using a Tecan Ultra fluorescence reader.

A further assay deals with HCT116. The assay is described as follows: Cell proliferation Assay (Alamar Blue), HCT116. Format: cell-based. To be noted: Homo sapiens, HCT-116, 72 hrs. The method, then:
as §1

Assay [1] deals with leukemia cell line (P388). Kind of assay: In vitro cell assays against a leukemia cell line. Format: cell-based. The following applies: result in words.
The target in the next assay is T2, CDC25A (Homo sapiens, UniProt P30304).
T2 sequence (P30304 1-524): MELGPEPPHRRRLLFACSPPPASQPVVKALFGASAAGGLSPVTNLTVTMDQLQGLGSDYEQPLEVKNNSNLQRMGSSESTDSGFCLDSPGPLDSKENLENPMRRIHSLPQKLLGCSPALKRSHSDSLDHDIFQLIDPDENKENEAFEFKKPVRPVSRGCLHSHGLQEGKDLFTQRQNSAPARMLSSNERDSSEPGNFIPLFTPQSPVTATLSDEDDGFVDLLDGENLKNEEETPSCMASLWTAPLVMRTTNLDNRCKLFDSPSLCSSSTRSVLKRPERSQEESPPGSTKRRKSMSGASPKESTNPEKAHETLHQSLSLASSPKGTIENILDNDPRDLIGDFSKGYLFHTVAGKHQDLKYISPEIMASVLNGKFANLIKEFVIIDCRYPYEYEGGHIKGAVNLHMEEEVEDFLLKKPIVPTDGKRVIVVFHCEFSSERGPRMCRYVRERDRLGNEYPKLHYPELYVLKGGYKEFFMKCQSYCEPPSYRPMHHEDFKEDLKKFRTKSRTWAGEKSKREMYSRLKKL
The assay is described as follows: CDC25A inhibition assay (sub-type selectivity). The assay is classed as biochemical. The following applies: after 20 minutes of pre-incubation; read-out: IC50 against CDC25A. From the text:
(§2) The compound of example 5 was thoroughly characterized towards its selectivity for CDC25 sub-types A, B, and C.

In a further assay the test system is A549. Kind of assay: Cell proliferation Assay (Alamar Blue), A549. The following applies: Homo sapiens, 72 hrs. Format: cell-based. Here is the method: Used cell lines: HCT116; DU145; A549, H460 In a 96-well plate, 3000 cells/well were plated in 100 µl DMEM containing 10% FBS, 10 mM HEPES and 1% Penicllin/Streptomycin. To each well 50 µl of additional growth media containing the compound with 0.1% DMSO was added. Cells were grown for 72 hrs. at 37°C. 20 µl of Alamar Blue reagent was added and incubated for 3-5 hours until color develops. Plates were read in a SpectraMax Gemini (Molecular Devices, CA) with 544 nm excitation and 590 nm emission wavelength. Table #5: Results assay #2

Another assay addresses LAR (PTPRF) (Homo sapiens, UniProt P10586). The assay is described as follows: Phosphatase counter-screen against LAR (PTPRF). Format: biochemical. (In general: A counterscreen serves to expose hits that act by an unwanted route or on another target.)
The target in another assay is T3, CDC25B (Homo sapiens, UniProt P30305).
T3 sequence (P30305 1-580): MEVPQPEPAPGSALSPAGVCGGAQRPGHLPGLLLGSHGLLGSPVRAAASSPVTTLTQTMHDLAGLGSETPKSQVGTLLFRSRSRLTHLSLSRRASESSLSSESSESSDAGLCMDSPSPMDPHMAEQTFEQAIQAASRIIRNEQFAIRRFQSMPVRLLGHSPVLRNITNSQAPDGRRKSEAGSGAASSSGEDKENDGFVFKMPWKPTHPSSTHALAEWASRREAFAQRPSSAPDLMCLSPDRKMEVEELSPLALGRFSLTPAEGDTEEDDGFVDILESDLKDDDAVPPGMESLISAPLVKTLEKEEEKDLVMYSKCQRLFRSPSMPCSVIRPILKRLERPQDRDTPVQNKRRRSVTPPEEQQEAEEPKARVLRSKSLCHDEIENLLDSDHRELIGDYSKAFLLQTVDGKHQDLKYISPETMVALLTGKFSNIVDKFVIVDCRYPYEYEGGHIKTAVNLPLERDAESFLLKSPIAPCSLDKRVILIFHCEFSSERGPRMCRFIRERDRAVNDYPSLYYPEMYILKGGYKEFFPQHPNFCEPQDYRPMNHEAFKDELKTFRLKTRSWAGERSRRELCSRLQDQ
The assay is described as follows: CDC25B inhibition assay (sub-type selectivity). The following applies: after 20 minutes of pre-incubation; read-out: IC50 against CDC25B. Format: biochemical.
Source text: as §2

Another assay has as its target T4, PTP1 B (Homo sapiens, UniProt P18031).
T4 sequence (P18031 1-435): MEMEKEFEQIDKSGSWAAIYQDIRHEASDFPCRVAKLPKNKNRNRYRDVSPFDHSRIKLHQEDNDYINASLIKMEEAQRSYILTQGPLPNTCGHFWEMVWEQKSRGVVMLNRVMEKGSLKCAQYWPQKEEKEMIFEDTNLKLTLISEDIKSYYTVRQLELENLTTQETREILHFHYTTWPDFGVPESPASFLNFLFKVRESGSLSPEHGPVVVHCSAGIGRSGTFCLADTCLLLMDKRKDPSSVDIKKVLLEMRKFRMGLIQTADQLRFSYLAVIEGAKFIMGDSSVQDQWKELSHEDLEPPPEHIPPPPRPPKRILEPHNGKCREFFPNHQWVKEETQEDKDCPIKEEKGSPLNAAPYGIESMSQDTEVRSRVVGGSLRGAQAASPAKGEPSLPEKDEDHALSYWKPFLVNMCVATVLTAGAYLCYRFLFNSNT
The assay is described as follows: Phosphatase counter-screen against PTP1 B. The assay is classed as biochemical.

Another assay deals with CDC25. To be noted: literature reports; cited from earlier work.
Setting [2] is: OMFP 90 µM, ambient temperature, assay run time 20 minutes, read-out: IC50.

LAR (PTPRF), sequence (P10586 30-1907, species assumed): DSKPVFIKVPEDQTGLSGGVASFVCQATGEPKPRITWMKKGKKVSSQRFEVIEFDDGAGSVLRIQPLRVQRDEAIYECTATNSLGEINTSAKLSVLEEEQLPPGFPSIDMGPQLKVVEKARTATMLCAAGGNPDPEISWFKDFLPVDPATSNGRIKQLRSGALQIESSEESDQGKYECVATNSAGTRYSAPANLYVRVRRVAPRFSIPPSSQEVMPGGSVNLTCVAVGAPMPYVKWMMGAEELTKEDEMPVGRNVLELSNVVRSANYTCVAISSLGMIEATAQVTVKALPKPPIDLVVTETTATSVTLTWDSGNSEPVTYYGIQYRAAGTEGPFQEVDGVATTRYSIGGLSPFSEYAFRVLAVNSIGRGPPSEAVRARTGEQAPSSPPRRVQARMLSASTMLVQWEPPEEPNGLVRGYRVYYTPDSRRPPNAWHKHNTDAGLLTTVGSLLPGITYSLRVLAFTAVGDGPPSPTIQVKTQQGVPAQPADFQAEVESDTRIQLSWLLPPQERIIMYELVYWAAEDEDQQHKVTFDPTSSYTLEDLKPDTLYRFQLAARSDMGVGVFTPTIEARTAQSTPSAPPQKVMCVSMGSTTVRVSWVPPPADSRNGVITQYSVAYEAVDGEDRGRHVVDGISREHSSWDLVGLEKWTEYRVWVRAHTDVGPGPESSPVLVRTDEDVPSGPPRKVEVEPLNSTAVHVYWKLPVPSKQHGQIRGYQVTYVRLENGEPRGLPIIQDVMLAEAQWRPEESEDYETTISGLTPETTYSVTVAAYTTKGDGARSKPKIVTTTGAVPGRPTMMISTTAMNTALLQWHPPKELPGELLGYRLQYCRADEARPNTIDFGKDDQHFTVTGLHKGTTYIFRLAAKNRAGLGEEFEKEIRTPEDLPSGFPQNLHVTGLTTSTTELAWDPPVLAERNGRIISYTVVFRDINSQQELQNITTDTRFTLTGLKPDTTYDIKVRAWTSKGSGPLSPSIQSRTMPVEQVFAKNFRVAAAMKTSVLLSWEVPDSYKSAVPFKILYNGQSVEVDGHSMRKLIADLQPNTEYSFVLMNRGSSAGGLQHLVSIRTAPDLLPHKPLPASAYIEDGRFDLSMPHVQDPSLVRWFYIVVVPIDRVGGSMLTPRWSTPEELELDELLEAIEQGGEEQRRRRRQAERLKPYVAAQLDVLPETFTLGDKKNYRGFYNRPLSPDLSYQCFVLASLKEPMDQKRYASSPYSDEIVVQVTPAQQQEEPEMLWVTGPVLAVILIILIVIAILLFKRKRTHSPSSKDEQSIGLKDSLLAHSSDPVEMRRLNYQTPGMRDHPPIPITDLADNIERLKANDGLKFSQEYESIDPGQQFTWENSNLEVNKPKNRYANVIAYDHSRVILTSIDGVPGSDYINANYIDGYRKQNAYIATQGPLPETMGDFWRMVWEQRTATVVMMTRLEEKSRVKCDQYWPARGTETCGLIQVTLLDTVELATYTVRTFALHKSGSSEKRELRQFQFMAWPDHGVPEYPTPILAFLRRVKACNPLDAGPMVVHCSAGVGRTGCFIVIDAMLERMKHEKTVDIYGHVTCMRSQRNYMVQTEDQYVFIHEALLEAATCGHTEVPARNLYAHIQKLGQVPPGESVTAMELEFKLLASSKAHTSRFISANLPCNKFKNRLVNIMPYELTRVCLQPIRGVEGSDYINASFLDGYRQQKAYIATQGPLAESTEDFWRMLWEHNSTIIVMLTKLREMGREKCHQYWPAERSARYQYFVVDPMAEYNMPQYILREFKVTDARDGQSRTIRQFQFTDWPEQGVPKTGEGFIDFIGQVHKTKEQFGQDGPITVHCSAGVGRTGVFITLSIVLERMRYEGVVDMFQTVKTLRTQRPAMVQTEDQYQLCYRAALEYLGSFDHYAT

One may read the IC50 as the point on the concentration scale where inhibition reaches its midpoint. Take `Cc1cc(=O)n2c3c(c4c(cc13)c(CO)cc(=O)n4C)OC2` [Example 1, nybomycin]: the IC50 is 720 nM in the assay on DU145, 230 nM in the assay on H460, greater than 20000 nM at CDC25C (setting [2]) and 730 nM in the assay with HCT116.
For the molecule `Cc1cc(=O)n(C)c2c3c4c(cc12)c(C)cc(=O)n4CO3` [Example 2, deoxynybomycin], the 50% inhibitory concentration (IC50) on CDC25C (setting [2]) is greater than 10000 nM.
Still for that read-out and setting: next, `Cc1cc(=O)n(C)c2c3c4c(c(C)cc(=O)n4CO3)c(O)c12` [Example 3, 7-hydroxy-deoxynybomycin]: 5000 nM.
Still for that read-out and setting: in the case of `Cn1c(=O)cc(CO)c2cc3c(CO)cc(=O)n4c3c(c21)OC4` [Example 4, 6'-hydroxynybomycin] it was 14000 nM.
Regarding `Cc1cc(=O)[nH]c2c(O)c3c(cc12)c(C)cc(=O)n3C` [Example 5, 10-hydroxy-1,4,6-trimethylpyndo[3,2-g]quino-line-2,8(1H,9H)-dione], the IC50 in the assay on DU145 was 100 nM; in the assay with H460 it was less than 300 nM; at CDC25C (after 20 minutes of pre-incubation, read-out: IC50 against CDC25C), 180 nM; at CDC25A, 150 nM; with A549, 100 nM; at CDC25B, 230 nM. The molecule also came in with an IC50 with HCT116 of 100 nM. The “potential as inhibitors of CDC25 compared with the comparative examples (1, 2, 3, 4, 6 and 9)” value in assay [1] was “much higher potential”. In addition, the “selectivity for CDC25 subtypes in comparison to LAR” value at LAR (PTPRF) stood at 100 fold. Also, on PTP1 B, the “selectivity for CDC25 subtypes in comparison to PTP1 B” value was 13 fold.
`Cc1cc(=O)n(C)c2c(O)c3c(cc12)c(C)cc(=O)n3C` [Example 6, 10-hydroxy-1,4,6,9-tetramethylpyrido[3,2-g]-quinoline-2,8(1H,9H)-dione]: the IC50 is 3000 nM with DU145; less than 10000 nM in the assay with H460; 14500 nM at CDC25C (setting [2]); less than 10000 nM in the assay with A549; 3000 nM in the assay with HCT116.
For `Cc1cc(=O)[nH]c2c(O)c3c(cc12)c(CO)cc(=O)n3C` [Example 7, 10-hydroxy-4-(hydroxymethyl)-1,6-dimethyl-pyrido[3,2-g]quinoline-2,8(1H,9H)-dione], the IC50 at CDC25C (setting [2]) is 930 nM. Moreover, the “potential as inhibitors of CDC25 compared with the comparative examples (1, 2, 3, 4, 6 and 9)” value in assay [1] was “much higher potential”.
On to `Cc1cc(=O)n(C)c2c(O)c3c(cc12)c(C)cc(=O)n3O` [Example 8, 1,10-dihydroxy-4,6,9-trimethylpyrido[3,2-g]-quinoline-2,8(1H,9H)-dione], for which the IC50 at CDC25C (setting [2]) turned out to be 520 nM. Further, in assay [1], the “potential as inhibitors of CDC25 compared with the comparative examples (1, 2, 3, 4, 6 and 9)” value was “much higher potential”.
For the molecule `CCCc1c2c([nH]c(=O)c1C)C(=O)c1[nH]c(=O)c(C)c(CCC)c1C2=O` [Example 9, 3,7-dimethyl-4,6-dipropylpyrido[3,2-g]-qujnoline-2,5,8,10(1H,9H)-tetraone; Diazaquinomycin A], the IC50 at CDC25C (setting [2]) was determined as 225000 nM.
Take `CCCc1c(C)c(=O)[nH]c2c(O)c3[nH]c(=O)c(C)c(CCC)c3cc12` [Example 10, 10-hydroxy-3,7-dimethyl-4,6-dipropylpyrido-[3,2-g]quinoline-2,8(1H,9H)-dione]: the IC50 on CDC25C (setting [2]) stood at 850 nM. The “potential as inhibitors of CDC25 compared with the comparative examples (1, 2, 3, 4, 6 and 9)” value in [1] is given as “much higher potential”.
Turning to `C=C(C)CCC[C@]1(C)CCC[C@@H]2C1=CC[C@@H](C)[C@@]2(C)C[C@@H](O)C1=CC(=O)O[C@H]1O` [dysidiolide], the “inhibit CDC25” value with CDC25 is “micromolar levels”.
Turning to coscinosulfate, the “inhibit CDC25” value in the assay on CDC25 is given as “micromolar levels”.
As for nocardione, in the assay with CDC25, the “inhibit CDC25” value is recorded as “micromolar levels”.
